The structures appear in SMILES notation. A value given as a limit tells only on which side of the number the result lay.

This note sets out measurements from US20250171459A1, “2-METHYL-4',5'-DIHYDROSPIRO[PIPERIDINE-4,7'-THIENO[2,3-C]PYRAN] DERIVATIVES AS INHIBITORS OF APOL1 AND METHODS OF USING SAME” (Vertex Pharmaceuticals Incorporated, priority 2022, published 2025).

This experiment has as its target T1, APOL1 (Homo sapiens, UniProt O14791).
T1 sequence (O14791 1-398 S342G/I384M): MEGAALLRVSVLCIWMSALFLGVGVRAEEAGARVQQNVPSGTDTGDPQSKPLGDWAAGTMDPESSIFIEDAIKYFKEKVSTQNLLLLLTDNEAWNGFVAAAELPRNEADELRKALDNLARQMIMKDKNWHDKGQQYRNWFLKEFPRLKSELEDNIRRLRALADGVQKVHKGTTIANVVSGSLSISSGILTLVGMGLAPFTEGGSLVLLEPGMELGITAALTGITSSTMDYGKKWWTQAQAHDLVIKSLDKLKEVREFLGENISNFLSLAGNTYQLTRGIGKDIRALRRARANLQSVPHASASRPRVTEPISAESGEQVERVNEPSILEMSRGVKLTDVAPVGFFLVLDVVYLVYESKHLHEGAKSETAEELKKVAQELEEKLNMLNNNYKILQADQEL
Nature of the experiment: MultiTox-Fluor Multiplex Cytotoxicity Assay in tet-inducible APOL1 T-REx-HEK293 cells (cell rescue, ratio of dead to live cells). It is filed as cell-based. The conditions noted are these: tet-inducible transgenic APOL1 T-REx-HEK293 cell lines, 50 ng/mL tet, 24 hours; read-out: IP50 (i.e., IC50 for cell proliferation). An excerpt: The MultiTox-Fluor Multiplex Cytotoxicity Assay is a single-reagent-addition, homogeneous, fluorescence assay that measures the number of live and dead cells simultaneously in culture wells. The assay measures cell viability and cytotoxicity by detecting two distinct protease activities. […] The substrate enters intact cells, where it is cleaved to generate a fluorescent signal proportional to the number of living cells. […] A ratio of dead to live cells is used to normalize data.
The MultiTox reagent was added to each well and placed back in the incubator for an additional 30 minutes. The plate was read on the EnVision plate reader. A ratio of dead to live cells was used to normalize, and data was imported, analyzed, and fit using Genedata Screener (Basel, Switzerland) software. Data was normalized using percent of control, no tet (100% viability), and 50 ng/mL tet treated (0% viability), and fit using Smart Fit. The reagents, methods, and complete protocol for the MultiTox assay are described below.
Cells were washed with DPBS and then trypsinized to dissociate from the flask. Media was used to quench the trypsin, cells were then pelleted at 200 g and resuspended in fresh cell assay media (DMEM, 2% Tet-free FBS, 2 mM L-glutamine, 100 Units/mL penicillin-streptomycin). […] The plates were then incubated at room temperature for one hour.
Tetracycline is needed to induce APOL1 expression. 1 mg/mL tet stock in water was diluted to 250 ng/mL (5×) in cell assay media.
Compounds were dispensed at 200 nL in DMSO. The final top concentration was 10 μM with a 10 point 3-fold dilution in duplicate in the MultiTox assay.
20 μL was transferred from the 5× tet plate to the ARP and mixed, then 5 μL of 5× tet and the compounds were transferred to the cell plate and mixed using the Bravo. The cell plate was placed in the humidified 37° C. 5% CO2 incubator for 24 hours.
The MultiTox-Fluor Multiplex Cytotoxicity Assay was performed in accordance with the manufacturer's protocol. After cells were incubated with tet and compound for 24 hours, 25 μL of 1× MultiTox reagent was added to each well using the Multidrop dispenser; the plates were placed on a plate shaker (600 rpm) for 2 minutes, then centrifuged briefly and placed back in the 37° C. incubator for 30 minutes. The cell viability (excitation: 400 nm, emission: 486 nm) and cytotoxicity (excitation: 485 nm, emission: 535 nm) were read using the EnVision plate reader. A ratio of dead (cytotoxicity) to live (viability) cells was reported. Data was exported and analyzed in Genedata. Data was normalized using percent of control, no tet (100% viability), and 50 ng/mL tet treated (0% viability), and fit using Smart Fit settings in Genedata.

As for `CCc1cc2c(s1)CCO[C@@]21CCN(Cc2cn(C3CN(S(=O)(=O)CCO)C3)nn2)[C@@H](C)C1` [Compound 1, 2-[3-[4-[[(2′S,4R)-2-ethyl-2′-methyl-spiro[6,7-dihydrothieno[3,2-c]pyran-4,4′-piperidine]-1′-yl]methyl]triazol-1-yl]azetidin-1-yl]sulfonylethanol], the IC50 was less than 100 nM.

As for `CCc1cc2c(s1)CCO[C@@]21CCN(Cc2cn(C3CN(S(=O)(=O)c4c[nH]cn4)C3)nn2)[C@@H](C)C1` [Compound 2], the IC50 was less than 100 nM.

Regarding `CCc1cc2c(s1)CCO[C@@]21CCN(Cc2cn(C3CN(S(=O)(=O)c4nccn4C)C3)nn2)[C@@H](C)C1` [Compound 3], the IC50 is less than 100 nM.

Regarding `CCc1cc2c(s1)CCO[C@@]21CCN(Cc2cn(C3CN(S(=O)(=O)c4cn[nH]c4)C3)nn2)[C@@H](C)C1` [Compound 4], the IC50 is less than 100 nM.

Take `CCc1cc2c(s1)CCO[C@@]21CCN(Cc2cn(C3CN(S(=O)(=O)C4CC4)C3)nn2)[C@@H](C)C1` [Compound 5]: the IC50 is less than 100 nM.

For the molecule `CCc1cc2c(s1)CCO[C@@]21CCN(Cc2cn(CCS(=O)(=O)NCCO)nn2)[C@@H](C)C1` [Compound 6, 2-[4-[[(2′S,4R)-2-ethyl-2′-methyl-spiro[6,7-dihydrothieno[3,2-c]pyran-4,4′-piperidine]-1′-yl]methyl]triazol-1-yl]-N-(2-hydroxyethyl)ethanesulfonamide], the IC50 was less than 100 nM.

`CCc1cc2c(s1)CCO[C@@]21CCN(Cc2cn(CCS(=O)(=O)NCC(C)O)nn2)[C@@H](C)C1` (stereo partly drawn) [Compound 7, 2-[4-[[(2′S,4R)-2-ethyl-2′-methyl-spiro[6,7-dihydrothieno[3,2-c]pyran-4,4′-piperidine]-1′-yl]methyl]triazol-1-yl]-N-(2-hydroxypropyl)ethanesulfonamide]: the IC50 is less than 100 nM.

On to `CCc1cc2c(s1)CCO[C@@]21CCN(Cc2c[nH]nn2)[C@@H](C)C1` [Compound 8, (2′S,4R)-2-ethyl-2′-methyl-1′-(1H-triazol-4-ylmethyl)spiro[6,7-dihydrothieno[3,2-c]pyran-4,4′-piperidine]], for which the IC50 is less than 100 nM.

With `CCc1cc2c(s1)CCO[C@@]21CCN(Cc2cn(CCS(C)(=O)=O)nn2)[C@H](C)C1` [Compound 9, (2′R,4R)-2-ethyl-2′-methyl-1′-[[1-(2-methylsulfonylethyl)triazol-4-yl]methyl]spiro[6,7-dihydrothieno[3,2-c]pyran-4,4′-piperidine]], the IC50 is 500 to 1000 nM.

For `CCc1cc2c(s1)CCO[C@]21CCN(Cc2cn(CCS(C)(=O)=O)nn2)[C@H](C)C1` [Compound 10, (2′R,4S)-2-ethyl-2′-methyl-1′-[[1-(2-methylsulfonylethyl)triazol-4-yl]methyl]spiro[6,7-dihydrothieno[3,2-c]pyran-4,4′-piperidine]], the IC50 lay within 500 to 1000 nM.

For the molecule `CCc1cc2c(s1)CCO[C@@]21CCN(Cc2cn(CCS(C)(=O)=O)nn2)[C@@H](C)C1` [Compound 11, (2′S,4R)-2-ethyl-2′-methyl-1′-[[1-(2-methylsulfonylethyl)triazol-4-yl]methyl]spiro[6,7-dihydrothieno[3,2-c]pyran-4,4′-piperidine]], the IC50 is less than 100 nM.

Consider `CCc1cc2c(s1)CCO[C@@]21CCN(Cc2cn(CCS(=O)(=O)NC)nn2)[C@@H](C)C1` [Compound 12, 2-[4-[[(2′S)-2-ethyl-2′-methyl-spiro[6,7-dihydrothieno[3,2-c]pyran-4,4′-piperidine]-1′-yl]methyl]triazol-1-yl]-N-methyl-ethanesulfonamide], for which the IC50 is less than 100 nM.

On to `CCc1cc2c(s1)CCO[C@@]21CCN(Cc2cn(CS(C)(=O)=O)nn2)[C@@H](C)C1` [Compound 13, (2′S)-2-ethyl-2′-methyl-1′-[[1-(methylsulfonylmethyl)triazol-4-yl]methyl]spiro[6,7-dihydrothieno[3,2-c]pyran-4,4′-piperidine]], for which the IC50 was less than 100 nM.

Turning to `CCc1cc2c(s1)CCO[C@@]21CCN(Cc2cn(CS(=O)(=O)CC)nn2)[C@@H](C)C1` [Compound 14, (2′S)-2-ethyl-1′-[[1-(ethylsulfonylmethyl)triazol-4-yl]methyl]-2′-methyl-spiro[6,7-dihydrothieno[3,2-c]pyran-4,4′-piperidine]], the IC50 lay within 100 to 500 nM.

With `CCc1cc2c(s1)CCO[C@@]21CCN(Cc2cn([C@@H]3CCN(C(=O)OC(C)(C)C)C3)nn2)[C@@H](C)C1` [Compound 15, tert-butyl (3R)-3-[4-[[(2′S,4R)-2-ethyl-2′-methyl-spiro[6,7-dihydrothieno[3,2-c]pyran-4,4′-piperidine]-1′-yl]methyl]triazol-1-yl]pyrrolidine-1-carboxylate], the IC50 was in the range of 100 to 500 nM.

Consider `CCc1cc2c(s1)CCO[C@@]21CCN(Cc2cn(-c3cncc(O)c3)nn2)[C@@H](C)C1` [Compound 16, 5-[4-[[(2′S,4R)-2-ethyl-2′-methyl-spiro[6,7-dihydrothieno[3,2-c]pyran-4,4′-piperidine]-1′-yl]methyl]triazol-1-yl]pyridin-3-ol], for which the IC50 was in the range of 100 to 500 nM.

In the case of `CCc1cc2c(s1)CCO[C@@]21CCN(Cc2cn([C@H]3CCN(C(=O)OC(C)(C)C)C3)nn2)[C@@H](C)C1` [Compound 17], the IC50 is less than 100 nM.

Turning to `CCc1cc2c(s1)CCO[C@@]21CCN(Cc2cn([C@H]3C[C@H](S(C)(=O)=O)C3)nn2)[C@@H](C)C1` [Compound 18], the IC50 was less than 100 nM.

Turning to `CCc1cc2c(s1)CCO[C@@]21CCN(Cc2cn([C@H]3C[C@@H](S(C)(=O)=O)C3)nn2)[C@@H](C)C1` [Compound 19], the IC50 lay within 100 to 500 nM.

With `CCc1cc2c(s1)CCO[C@@]21CCN(Cc2cn(C3CCN(S(C)(=O)=O)CC3)nn2)[C@@H](C)C1` [Compound 20], the IC50 fell in the range of 100 to 500 nM.

With `CCc1cc2c(s1)CCO[C@@]21CCN(Cc2cn(C3CN(C(=O)OC(C)(C)C)C3)nn2)[C@@H](C)C1` [Compound 21], the IC50 is less than 100 nM.

As for `CCc1cc2c(s1)CCO[C@@]21CCN(Cc2cn(CCSC(F)(F)F)nn2)[C@@H](C)C1` [Compound 22], the IC50 was less than 100 nM.

In the case of `CCc1cc2c(s1)CCO[C@@]21CCN(Cc2cn(CCSCCO)nn2)[C@@H](C)C1` [Compound 23], the IC50 was less than 100 nM.

In the case of `CCc1cc2c(s1)CCO[C@@]21CCN(Cc2cn(CCSCC(C)(C)O)nn2)[C@@H](C)C1` [Compound 24], the IC50 is less than 100 nM.

As to `CCc1cc2c(s1)CCO[C@@]21CCN(Cc2cn(C3CC4(C3)CS(=O)(=O)C4)nn2)[C@@H](C)C1` [Compound 25], the IC50 is less than 100 nM.

Take `CCc1cc2c(s1)CCO[C@@]21CCN(Cc2cn(CCS(=O)(=O)c3ccccc3)nn2)[C@@H](C)C1` [Compound 26]: the IC50 is less than 100 nM.

In the case of `CCc1cc2c(s1)CCO[C@@]21CCN(Cc2cn([C@H]3CCN(S(C)(=O)=O)C3)nn2)[C@@H](C)C1` [Compound 27], the IC50 is less than 100 nM.

For `CCc1cc2c(s1)CCO[C@@]21CCN(Cc2cn(C3CCCN(S(C)(=O)=O)C3)nn2)[C@@H](C)C1` (stereo partly shown) [Compound 28], the IC50 was in the range of 100 to 500 nM.

Consider `CCc1cc2c(s1)CCO[C@@]21CCN(Cc2cn(C3CS(=O)(=O)C3)nn2)[C@@H](C)C1` [Compound 29], for which the IC50 was less than 100 nM.

On to `CCc1cc2c(s1)CCO[C@@]21CCN(Cc2cn(C3CCN(S(C)(=O)=O)C3)nn2)[C@@H](C)C1` (stereo partly shown) [Compound 30], for which the IC50 lay within 100 to 500 nM.

`CCc1cc2c(s1)CCO[C@@]21CCN(Cc2cn(CCn3ccnc3)nn2)[C@@H](C)C1` [Compound 31]: the IC50 fell in the range of 100 to 500 nM.

Take `CCc1cc2c(s1)CCO[C@@]21CCN(Cc2cn(Cc3cnc(C)cn3)nn2)[C@@H](C)C1` [Compound 32]: the IC50 is less than 100 nM.

As for `CCc1cc2c(s1)CCO[C@@]21CCN(Cc2cn(CC3CCO3)nn2)[C@@H](C)C1` (stereo partly shown) [Compound 33], the IC50 is less than 100 nM.

As for `CCc1cc2c(s1)CCO[C@@]21CCN(Cc2cn(Cc3cnco3)nn2)[C@@H](C)C1` [Compound 34], the IC50 was less than 100 nM.
